In the experiment the target is Recombinant human Mat2a (Homo sapiens, UniProt P31153). The experiment is described as follows: Determination of Mat2A activity (384 well absorbance-based assay, Biomol Green). It is filed as biochemical. The note with it: 12.5 nM Mat2A, 100 μM ATP and Methionine, 2% DMSO, 120 minutes at RT, absorbance at 635 nm. The procedure: Determination of Mat2A activity
Chain of Recombinant human Mat2a (P31153 whole entry): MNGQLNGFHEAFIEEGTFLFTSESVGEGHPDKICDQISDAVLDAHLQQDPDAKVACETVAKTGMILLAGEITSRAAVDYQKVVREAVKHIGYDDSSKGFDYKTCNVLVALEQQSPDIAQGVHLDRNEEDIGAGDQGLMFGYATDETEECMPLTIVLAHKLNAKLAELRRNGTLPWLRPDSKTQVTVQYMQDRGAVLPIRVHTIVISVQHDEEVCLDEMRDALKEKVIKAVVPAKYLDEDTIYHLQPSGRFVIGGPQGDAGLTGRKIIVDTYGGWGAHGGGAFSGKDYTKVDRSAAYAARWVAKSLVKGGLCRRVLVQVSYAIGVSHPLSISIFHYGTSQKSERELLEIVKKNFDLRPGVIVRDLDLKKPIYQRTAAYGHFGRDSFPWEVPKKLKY
Measurement of Mat2A inhibition is performed in 384 well format absorbance-based assay. Recombinant human Mat2a (12.5 nM) and serial diluted compounds in DMSO (range of concentrations from […] to 508 pM) or controls (DMSO) are incubated for 15 minutes at room temperature (RT) in assay buffer containing 50 mM HEPES pH 7.5, 50 mM KCl, 50 mM MgCl2, 0.01% Tween 20 and 10 mM DTT. The reaction is initiated by the addition of the combined substrates ATP and Methionine, each at a final concentration of 100 μM. Final assay condition are 12.5 nM Mat2A, 100 μM ATP and Methionine Substrates and 2% DMSO. After 120 minutes of incubation at RT, the reaction is stopped by the addition of Biomol Green. The absorbance signal is measured at λ=635 nm with a multiplate reader (BMG Pherastar reader or equivalent) after 30 min of equilibration at RT.
As a reminder, the IC50 is the concentration at which inhibition is half-maximal. For the compound `COc1nccc(F)c1-n1c(=O)nc(N)c2ccc(C3CC3)nc21` [Example 60, 4-amino-7-cyclopropyl-1-(4-fluoro-2-methoxypyridin-3-yl)pyrido[2,3-d]pyrimidin-2(1H)-one], the IC50 stood at 0.02 µM. The result for `N#Cc1cccc(-n2c(=O)nc(N)c3ccc(C4CC4)nc32)c1` [Example 151, 3-(4-amino-7-cyclopropyl-2-oxopyrido[2,3-d]pyrimidin-1 (2H)-yl)benzonitrile] reads less than 0.013 µM. As to `Nc1nc(=O)n([C@@H]2CCCOC2)c2nc([C@@H]3C[C@H]3F)ccc12` (mixture of isomers) [Example 49, 4-amino-7-[(1SR,2RS)-2-fluorocyclopropyl]-1-[(3R)-tetrahydropyran-3-yl]pyrido[2,3-d]pyrimidin-2-one], the IC50 is 0.014 µM. The result for `CCNc1ccc2c(N)nc(=O)n(-c3ccccc3C)c2c1` [Example 153, 4-amino-7-(ethylamino)-1-(o-tolyl)quinazolin-2-one] reads 0.017 µM. For `Cc1c(CF)cccc1-n1c(=O)nc(N)c2ccc(C3CC3)nc21` [Example 131, 4-amino-7-cyclopropyl-1-(3-(fluoromethyl)-2-methylphenyl)pyrido[2,3-d]pyrimidin-2 (1H)-one] the value was less than 0.013 µM; for `Cc1ncccc1-n1c(=O)nc(N)c2ccc(C3CCCC3)nc21` [Example 56, 4-amino-7-cyclopentyl-1-(2-methyl-3-pyridyl)pyrido[2,3-d]pyrimidin-2-one], less than 0.013 µM; for `Cc1c(C#N)cccc1-n1c(=O)nc(N)c2ccc(C(F)(F)F)nc21` [Example 77, 3-(4-amino-2-oxo-7-(trifluoromethyl)pyrido[2,3-d]pyrimidin-1(2H)-yl)-2-methylbenzonitrile], less than 0.013 µM. `Cc1c(C#N)cccc1-n1c(=O)nc(N)c2ccc(C3CC3)nc21` [Example 15, 3-(4-amino-7-cyclopropyl-2-oxopyrido[2,3-d]pyrimidin-1(2H)-yl)-2-methylbenzonitrile]: the IC50 is less than 0.013 µM. For `Nc1nc(=O)n([C@@H]2CCCOC2)c2nc(C3CC3)ccc12` [Example 26, 4-amino-7-cyclopropyl-1-[(3R)-oxan-3-yl]pyrido[2,3-d]pyrimidin-2-one], the IC50 was less than 0.013 µM.

Regarding `Cc1cc(F)ccc1-n1c(=O)nc(N)c2ccc(C3CC3)nc21` [Example 67, 4-amino-7-cyclopropyl-1-(4-fluoro-2-methylphenyl)pyrido[2,3-d]pyrimidin-2-one], the IC50 was 0.018 µM. The result for `Nc1nc(=O)n(-c2cccc(Cl)c2Cl)c2nc(C3CC3)ccc12` [Example 128, 4-amino-7-cyclopropyl-1-(2,3-dichlorophenyl)pyrido[2,3-d]pyrimidin-2 (1H)-one] reads less than 0.013 µM. Regarding `Cc1ncccc1-n1c(=O)nc(N)c2ccc(C(F)(F)F)cc21` [Example 29, 4-amino-1-(2-methylpyridin-3-yl)-7-(trifluoromethyl)quinazolin-2-one], the IC50 was less than 0.013 µM. The result for `Cc1ncccc1-n1c(=O)nc(O)c2ccc(C3CC3)nc21` [Example 101, 7-cyclopropyl-1-(2-methylpyridin-3-yl)pyrido[2,3-d]pyrimidine-2,4-dione] reads 0.04 µM; that for `Nc1nc(=O)n(-c2ccccc2Cl)c2nc(C3CC3)ccc12` [Example 64, 4-amino-1-(2-chlorophenyl)-7-cyclopropylpyrido[2,3-d]pyrimidin-2-one], less than 0.013 µM; that for `Cc1ccccc1-n1c(=O)nc(N)c2cc(OC(F)F)c(C3CC3)nc21` [Example 113, 4-amino-7-cyclopropyl-6-(difluoromethoxy)-1-(o-tolyl)pyrido[2,3-d]pyrimidin-2-one], 0.014 µM.

As to `Nc1nc(=O)n(-c2cccc3[nH]ccc23)c2nc(C3CC3)ccc12` [Example 164, 4-amino-7-cyclopropyl-1-(1H-indol-4-yl)pyrido[2,3-d]pyrimidin-2-one], the IC50 was less than 0.013 µM. For `Cn1nccc1-n1c(=O)nc(N)c2ccc(C3CC3)nc21` [Example 44, 4-amino-7-cyclopropyl-1-(2-methylpyrazol-3-yl)pyrido[2,3-d]pyrimidin-2-one] the value was less than 0.013 µM. On to `Cc1c(F)cccc1-n1c(=O)nc(N)c2ccc(OC(F)(F)F)cc21` [Example 159, 4-amino-1-(3-fluoro-2-methylphenyl)-7-(trifluoromethoxy)quinazolin-2-one], for which the IC50 was 0.019 µM. Regarding `Cc1ccccc1-n1c(=O)nc(N)c2ccc(Cl)nc21` [Example 62, 4-amino-7-chloro-1-(o-tolyl)pyrido[2,3-d]pyrimidin-2(1H)-one], the IC50 was found to be 0.02 µM.

As to `CCOc1c(C#N)cccc1-n1c(=O)nc(N)c2ccc(C3CC3)nc21` [Example 20, 3-(4-amino-7-cyclopropyl-2-oxopyrido[2,3-d]pyrimidin-1(2H)-yl)-2-ethoxybenzonitrile], the IC50 is 0.015 µM. Take `Cc1ccccc1-n1c(=O)nc(N)c2cnc(C3CC3)cc21` [Example 52, 4-amino-7-cyclopropyl-1-(o-tolyl)pyrido[4,3-d]pyrimidin-2(1H)-one]: the IC50 came to 0.043 µM. For `COc1ncccc1-n1c(=O)nc(N)c2cc(Cl)c(C3CC3)nc21` [Example 66, 4-amino-6-chloro-7-cyclopropyl-1-(2-methoxypyridin-3-yl)pyrido[2,3-d]pyrimidin-2(1H)-one] the value was 0.013 µM. The result for `Cc1ncccc1-n1c(=O)nc(N)c2ccc(OC(F)F)cc21` [Example 34] reads less than 0.013 µM. As to `Nc1nc(=O)n(-c2ccccc2F)c2nc(C3CC3)ccc12` [Example 79, 4-amino-7-cyclopropyl-1-(2-fluorophenyl)pyrido[2,3-d]pyrimidin-2(1H)-one], the IC50 was less than 0.013 µM.

Consider `COc1ncccc1-n1c(=O)nc(N)c2ccc(C3CC3)nc21` [Example 9, 4-amino-7-cyclopropyl-1-(2-methoxypyridin-3-yl)pyrido[2,3-d]pyrimidin-2(1H)-one], for which the concentration for half-maximal inhibition (IC50) was less than 0.013 µM. In the case of `Cc1cccc(-n2c(=O)nc(N)c3ccc(OC(F)F)cc32)c1F` [Example 133, 4-amino-7-(difluoromethoxy)-1-(2-fluoro-3-methylphenyl)quinazolin-2 (1H)-one], the IC50 worked out at 0.026 µM. The result for `Cc1ccccc1-n1c(=O)nc(N)c2ccc(C3CC3)nc21` [Example 1, 4-amino-7-cyclopropyl-1-(o-tolyl)pyrido[2,3-d]pyrimidin-2(1H)-one] reads less than 0.013 µM. On to `Nc1nc(=O)n(-c2cccc3ncsc23)c2nc(C3CC3)ccc12` [Example 120], for which the IC50 is less than 0.013 µM. Take `Nc1nc(=O)n(-c2cccc(F)c2Cl)c2nc(C3CC3)ccc12` (single isomer, unassigned) [Example 117, (−)-4-amino-1-(2-chloro-3-fluorophenyl)-7-cyclopropylpyrido[2,3-d]pyrimidin-2 (1H)-one]: the IC50 is 0.078 µM. The result for `C[C@@H]1OCCC[C@@H]1n1c(=O)nc(N)c2ccc(C3CC3)nc21` (racemic) [Example 121, 4-amino-7-cyclopropyl-1-[(2SR,3SR)-2-methyltetrahydropyran-3-yl]pyrido[2,3-d]pyrimidin-2-one] reads 0.014 µM; that for `COc1c(C#N)cccc1-n1c(=O)nc(N)c2cc(Cl)c(C3CC3)nc21` [Example 65, 3-(4-amino-6-chloro-7-cyclopropyl-2-oxopyrido[2,3-d]pyrimidin-1(2H)-yl)-2-methoxybenzonitrile], 0.018 µM.

As to `C[C@@H]1OCCC[C@H]1n1c(=O)nc(N)c2ccc(C3CC3)nc21` [Example 119, 4-amino-7-cyclopropyl-1-((2S,3R)-2-methyltetrahydro-2H-pyran-3-yl)pyrido[2,3-d]pyrimidin-2 (1H)-one], the IC50 was less than 0.013 µM.

Consider `Nc1nc(=O)n(-c2cccc(F)c2F)c2nc(C3CC3)ccc12` [Example 73, 4-amino-7-cyclopropyl-1-(2,3-difluorophenyl)pyrido[2,3-d]pyrimidin-2(1H)-one], for which the IC50 is less than 0.013 µM. The result for `Cc1c(F)cccc1-n1c(=O)nc(N)c2ccc(C3CC3)nc21` [Example 25, 4-amino-7-cyclopropyl-1-(3-fluoro-2-methylphenyl)pyrido[2,3-d]pyrimidin-2(1H)-one] reads less than 0.013 µM; that for `Nc1nc(=O)n(-c2cccnc2Cl)c2nc(C3CC3)ccc12` [Example 85, 4-amino-1-(2-chloropyridin-3-yl)-7-cyclopropylpyrido[2,3-d]pyrimidin-2(1H)-one], less than 0.013 µM. Turning to `COc1c(F)cccc1-n1c(=O)nc(N)c2ccc(C3CC3)nc21` [Example 14, 4-amino-7-cyclopropyl-1-(3-fluoro-2-methoxyphenyl)pyrido[2,3-d]pyrimidin-2(1H)-one], the IC50 stood at 0.027 µM. For `Cc1ncsc1-n1c(=O)nc(N)c2ccc(C3CC3)nc21` [Example 51, 4-amino-7-cyclopropyl-1-(4-methylthiazol-5-yl)pyrido[2,3-d]pyrimidin-2-one] the value was less than 0.013 µM; for `CC(C1CCOC1)n1c(=O)nc(N)c2ccc(C3CC3)nc21` (stereo not shown) [Example 13, 4-amino-7-cyclopropyl-1-[1-(oxolan-3-yl)ethyl]pyrido[2,3-d]pyrimidin-2-one], 0.023 µM; for `Cc1cccc(-n2c(=O)nc(N)c3ccc(C4CC4)nc32)c1F` [Example 127, 4-amino-7-cyclopropyl-1-(2-fluoro-3-methylphenyl)pyrido[2,3-d]pyrimidin-2 (1H)-one], 0.013 µM.

Take `N#Cc1cccc(-n2c(=O)nc(N)c3ccc(C4CC4)nc32)c1Cl` [Example 143, 3-(4-amino-7-cyclopropyl-2-oxopyrido[2,3-d]pyrimidin-1 (2H)-yl)-2-chlorobenzonitrile]: the IC50 is less than 0.013 µM.

(Values after patent publication US20230227449A1, “AMIDOPYRIMIDONE DERIVATIVES” (Hoffmann-La Roche Inc., priority 2020, published 2023).)
